Columns and labels:
[1] = system: STING; assay: in vitro model of STING activation: PBMCs with ADUS100 with or without JAK-inhibitor, scRNA-seq; type: cell-based, human; settings: 4 hours
Description: Sequencing reads were demultiplexed and aligned to the human reference genome (hg38), and counted using the CellRanger Pipeline v6.0. Unfiltered RNA UMI counts were loaded into Seurat v4 for quality control, data integration and downstream analyses. Apoptotic cells and empty sequencing capsules were excluded by filtering out cells with low number of features (Filters were defined based on the batch: STING1: nFeature <300; STING2 and STING3<500; IFN-stim <750) or a mitochondrial content higher than 20%. Data from each sample were normalized using sctransform, before batch correction using Seurat's FindIntegratedAnchors, on the 3,000 most variable features. For the IFN-β dataset, for computational efficiency, integration anchors were determined with a canonical correlation analysis, using all unstimulated samples as reference. For the SAVI dataset, to avoid over-aligning samples, a reciprocal principal component analysis (PCA) was used to find integration anchors. On the resulting integrated datasets, we computed the PCA on the 3000 most variable genes, before computing a UMAP (on 20 PCs for SAVI and 30 PCs for IFN-stimulation). Community detection was performed using the graph-based modularity-optimization Louvain algorithm from Seurat's FindClusters function with a 1.2 resolution. Cell types labels were assigned to resulting clusters based on a manually curated list of marker genes as well as previously defined signatures of the PBMC subtypes.^58 Despite filtering for high quality cells, 11/34 clusters in the SAVI dataset and 7/36 in the IFN-β dataset stood out as poor quality clusters and were removed from further analysis. They represented low UMI cells, dying cells, cycling cells, doublets, or contaminants (progenitor cells, basophils, platelets or megakaryocytes). […] Transcriptomic signatures scores were calculated using Seurat's AddModuleScore function. […]
Human PBMC samples were obtained from Promocell (C-12907 promocell, lot 434Z036). […] Libraries were sequenced on a Novaseq (Illumina), with 26 cycles of read 1, 8 cycles of i7 index and 98 cycles of read 2. […]

[2] = system: T cell; settings: cited from earlier work
[3] = system: SAVI patients; settings: SAVI patients treated with JAK-inhibitors; cited from earlier work
[4] = PBMCs from a healthy donor, ADUS100 3 mM, vs unstimulated

## Nc1ncnc2c1ncn2[C@@H]1O[C@@H]2COP(=O)([S-])O[C@@H]3[C@H](O)[C@@H](COP([O-])(=S)O[C@H]2[C@H]1O)O[C@H]3n1cnc2c(N)ncnc21.[Na+].[Na+] (some centres unmarked) [ADUS100]
[1]; [4]
  score of NF-κB activation: increased
  score of type I IFN response: increased
[1]; monocytes and DCs of stimulated PBMCs
  STING-associated signature (21 genes): strong increase

## C[C@@H]1CCN(C(=O)CC#N)C[C@@H]1N(C)c1ncnc2[nH]ccc12 [Tofacitinib, tofacitinib]
[2]
  T cell proliferation: inhibit T cell proliferation
[3]
  symptoms of SAVI patients: partial improvements of the symptoms
